Laboratory results from patent US11767322B2 (BRISTOL-MYERS SQUIBB COMPANY, priority 2020, dated 2023).
Where two headings read alike, the source gives them in different places.

How the values were obtained:
[1] = test system: MLKL phosphorylation in HT29-L23 human colorectal adenocarcinoma cells; experiment: MLKL phosphorylation high-content assay; assay type: cell-based; settings: necroptosis induced with TNFα, SMAC mimetic and Z-VAD, 6 h, maximal inhibition defined by Nec1s
[2] = target: GST-tagged PIK3Cδ in complex with PIK3R1 (Homo sapiens, UniProt O00329); experiment: PI3Kδ HTRF binding assay; settings: read-out: PIK3CD IC50
Chain of GST-tagged PIK3Cδ in complex with PIK3R1 (O00329 whole entry): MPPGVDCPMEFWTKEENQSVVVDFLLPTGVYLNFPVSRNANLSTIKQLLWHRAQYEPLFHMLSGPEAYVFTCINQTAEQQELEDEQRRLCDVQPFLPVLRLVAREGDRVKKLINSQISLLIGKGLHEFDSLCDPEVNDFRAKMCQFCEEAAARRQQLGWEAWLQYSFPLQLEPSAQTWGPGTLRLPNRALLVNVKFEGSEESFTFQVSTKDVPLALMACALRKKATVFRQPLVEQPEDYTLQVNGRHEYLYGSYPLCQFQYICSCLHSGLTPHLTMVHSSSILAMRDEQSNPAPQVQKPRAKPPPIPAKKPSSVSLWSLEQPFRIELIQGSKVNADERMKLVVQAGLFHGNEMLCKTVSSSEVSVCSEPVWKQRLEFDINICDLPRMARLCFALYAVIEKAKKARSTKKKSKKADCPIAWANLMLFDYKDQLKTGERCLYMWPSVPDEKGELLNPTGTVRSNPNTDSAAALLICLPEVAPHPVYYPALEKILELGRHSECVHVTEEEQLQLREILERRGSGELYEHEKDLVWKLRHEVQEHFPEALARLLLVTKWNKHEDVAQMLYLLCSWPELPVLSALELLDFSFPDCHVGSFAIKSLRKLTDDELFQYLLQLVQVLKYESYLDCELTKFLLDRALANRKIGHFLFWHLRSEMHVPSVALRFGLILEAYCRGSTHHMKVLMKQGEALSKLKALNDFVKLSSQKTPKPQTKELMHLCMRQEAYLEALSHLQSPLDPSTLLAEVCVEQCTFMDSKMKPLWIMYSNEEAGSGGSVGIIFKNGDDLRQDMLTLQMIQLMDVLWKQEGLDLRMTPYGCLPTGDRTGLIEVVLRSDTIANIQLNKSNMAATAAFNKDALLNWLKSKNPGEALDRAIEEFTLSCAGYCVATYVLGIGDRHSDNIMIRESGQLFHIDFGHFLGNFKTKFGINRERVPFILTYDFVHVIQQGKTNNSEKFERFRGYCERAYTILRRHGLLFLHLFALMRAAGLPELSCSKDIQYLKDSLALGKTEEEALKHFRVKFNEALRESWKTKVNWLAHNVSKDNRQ
Chain of GST-tagged PIK3Cδ in complex with PIK3R1 (P27986 whole entry partner): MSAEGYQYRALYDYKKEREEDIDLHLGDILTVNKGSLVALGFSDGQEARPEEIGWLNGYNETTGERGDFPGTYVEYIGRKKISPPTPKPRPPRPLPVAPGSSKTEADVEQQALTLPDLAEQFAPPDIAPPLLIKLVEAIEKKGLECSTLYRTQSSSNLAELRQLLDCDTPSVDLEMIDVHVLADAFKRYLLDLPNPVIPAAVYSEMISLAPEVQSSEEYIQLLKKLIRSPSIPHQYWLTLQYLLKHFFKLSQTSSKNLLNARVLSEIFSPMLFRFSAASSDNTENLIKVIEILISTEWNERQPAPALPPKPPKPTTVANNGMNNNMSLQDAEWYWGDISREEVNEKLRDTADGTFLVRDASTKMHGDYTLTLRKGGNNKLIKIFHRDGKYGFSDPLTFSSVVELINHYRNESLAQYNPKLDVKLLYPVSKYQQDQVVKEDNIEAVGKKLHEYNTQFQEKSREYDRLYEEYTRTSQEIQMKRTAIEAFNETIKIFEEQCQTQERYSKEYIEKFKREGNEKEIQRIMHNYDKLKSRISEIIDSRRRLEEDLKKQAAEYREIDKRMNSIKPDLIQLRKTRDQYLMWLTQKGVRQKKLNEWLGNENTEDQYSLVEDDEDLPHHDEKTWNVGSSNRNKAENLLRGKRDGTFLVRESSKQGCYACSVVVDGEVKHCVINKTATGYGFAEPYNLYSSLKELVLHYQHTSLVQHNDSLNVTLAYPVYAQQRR

[3] = target: T1, His-GST-TVMV-hRIPK1(1-324) (Homo sapiens, UniProt Q13546); experiment: biochemical; assay type: binding; settings: HTRF probe displacement, 1 h at rt; read-out: RIPK1 IC50
T1 construct: The coding region of human RIPK1(1-324) flanked by NdeI site at 5′ end; made in house; host or cells: Spodoptera frugiperda Sf9 insect cells (baculovirus, Bac-to-Bac)
T1 sequence (Q13546 1-324): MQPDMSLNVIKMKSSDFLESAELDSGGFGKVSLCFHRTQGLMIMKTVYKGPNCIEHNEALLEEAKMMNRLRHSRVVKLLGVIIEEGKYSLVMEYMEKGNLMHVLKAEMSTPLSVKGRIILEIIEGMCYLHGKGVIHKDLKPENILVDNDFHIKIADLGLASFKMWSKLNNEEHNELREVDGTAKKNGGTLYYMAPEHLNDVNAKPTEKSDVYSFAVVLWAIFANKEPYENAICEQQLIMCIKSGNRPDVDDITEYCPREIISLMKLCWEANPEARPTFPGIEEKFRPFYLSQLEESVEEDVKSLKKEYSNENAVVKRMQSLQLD

[4] = read-out: pMLKL IC50, HT29-L23 cells
[5] = HTRF probe displacement, 1 h at rt
[6] = Homo sapiens, read-out: pMLKL IC50, HT29-L23 cells

**Q.** `Cc1ccc(-c2ccn3nc(N)nc3c2)c(F)c1C(=O)NCC(F)(F)C(O)c1ccc(F)cn1` (stereo not drawn) [Example 269, 3-{2-amino-[1,2,4]triazolo[1,5-a]pyridin-7-yl}-N-[2,2-difluoro-3-(5-fluoropyridin-2-yl)-3-hydroxypropyl]-2-fluoro-6-methylbenzamide] was tested. Which IC50 [1, 4] did it give?
**A.** 1.5 nM

**Q.** And the IC50 [2, 5]?
**A.** > 15000 nM

**Q.** What about the IC50 [3] of the same molecule?
**A.** 4.6 nM

**Q.** Which IC50 [1, 4] does the source give for `Cc1ccc(-c2ccn3nc(N)nc3c2)c(F)c1C(=O)NCC(F)(F)C(O)c1ccc(F)cn1` (stereo not drawn) [Example 270, 3-{2-amino-[1,2,4]triazolo[1,5-a]pyridin-7-yl}-N-[2,2-difluoro-3-(5-fluoropyridin-2-yl)-3-hydroxypropyl]-2-fluoro-6-methylbenzamide] here?
**A.** 3.1 nM

**Q.** What about the IC50 [2, 5] of the same molecule?
**A.** > 15000 nM

**Q.** What about the IC50 [3] of the same molecule?
**A.** 11 nM

**Q.** How did the IC50 [1, 6] turn out when `Cc1cc(F)c(-c2ccn3nc(N)nc3c2)c(F)c1C(=O)NCC[C@H](O)c1ccc(Cl)cc1` [Example 277, (S)-3-(2-amino-[1,2,4]triazolo[1,5-a]pyridin-7-yl)-N-(3-(4-chlorophenyl)-3-hydroxypropyl)-2,4-difluoro-6-methylbenzamide] was run?
**A.** 69 nM

**Q.** And the IC50 [2, 5]?
**A.** > 15000 nM

**Q.** And the IC50 [3]?
**A.** 36 nM

**Q.** For `Cc1cc(F)c(-c2ccn3nc(N)nc3c2)c(F)c1C(=O)NCC[C@@H](O)c1ccc(Cl)cc1` [Example 278, (R)-3-(2-amino-[1,2,4]triazolo[1,5-a]pyridin-7-yl)-N-(3-(4-chlorophenyl)-3-hydroxypropyl)-2,4-difluoro-6-methylbenzamide], which IC50 [1, 6] is on record?
**A.** 38 nM

**Q.** What about the IC50 [2, 5] of the same molecule?
**A.** > 15000 nM

**Q.** And the IC50 [3]?
**A.** 13 nM

**Q.** Which results are given for `Nc1nc2cc(-c3ccc(Cl)c(C(=O)NCC(F)(F)C(=O)c4ccc(F)cc4)c3F)ccn2n1` [Example 280, 3-(2-amino-[1,2,4]triazolo[1,5-a]pyridin-7-yl)-6-chloro-N-(2,2-difluoro-3-(4-fluorophenyl)-3-oxopropyl)-2-fluorobenzamide]?
**A.** IC50 [1, 6]: 1.4 nM; IC50 [2, 5]: 11000 nM; IC50 [3]: 15 nM

**Q.** With `Cc1ccc(-c2ccn3nc(N)nc3c2)c(F)c1C(=O)NCC(F)(F)C(=O)c1ccc(F)cc1` [Example 281, 3-(2-amino-[1,2,4]triazolo[1,5-a]pyridin-7-yl)-N-(2,2-difluoro-3-(4-fluorophenyl)-3-oxopropyl)-2-fluoro-6-methylbenzamide] as the molecule, how does the IC50 [1, 6] read?
**A.** 1.3 nM

**Q.** And the IC50 [2, 5]?
**A.** > 15000 nM

**Q.** And the IC50 [3]?
**A.** 7.2 nM

**Q.** `Nc1nc2cc(-c3ccc(Cl)c(C(=O)NCC(F)(F)[C@@H](F)c4ccc(F)cc4)c3F)ccn2n1` [Example 282, (S)-3-(2-amino-[1,2,4]triazolo[1,5-a]pyridin-7-yl)-6-chloro-2-fluoro-N-(2,2,3-trifluoro-3-(4-fluorophenyl)propyl)benzamide] was tested. Which IC50 [1, 6] did it give?
**A.** 1.1 nM

**Q.** What about the IC50 [2, 5] of the same molecule?
**A.** > 15000 nM

**Q.** What about the IC50 [3] of the same molecule?
**A.** 2.2 nM

**Q.** With `Nc1nc2cc(-c3ccc(CF)c(C(=O)NCC(F)(F)[C@@H](O)c4ccc(F)cc4)c3F)ccn2n1` [Example 294, (S)-3-(2-amino-[1,2,4]triazolo[1,5-a]pyridin-7-yl)-N-(2,2-difluoro-3-(4-fluorophenyl)-3-hydroxypropyl)-2-fluoro-6-(fluoromethyl)benzamide] as the molecule, how does the IC50 [1, 6] read?
**A.** 1.9 nM

**Q.** What about the IC50 [2, 5] of the same molecule?
**A.** > 15000 nM

**Q.** What about the IC50 [3] of the same molecule?
**A.** 1.9 nM

**Q.** With `Nc1nc2cc(-c3ccc(C(F)F)c(C(=O)NCC(F)(F)[C@@H](O)c4ccc(F)cc4)c3F)ccn2n1` [Example 295, (S)-3-(2-amino-[1,2,4]triazolo[1,5-a]pyridin-7-yl)-N-(2,2-difluoro-3-(4-fluorophenyl)-3-hydroxypropyl)-6-(difluoromethyl)-2-fluorobenzamide] as the molecule, how does the IC50 [1, 6] read?
**A.** 1.4 nM

**Q.** What about the IC50 [2, 5] of the same molecule?
**A.** > 15000 nM

**Q.** And the IC50 [3]?
**A.** 3.3 nM

**Q.** Which results are given for “(S)-3-(2-amino-[1,2,4]triazolo[1,5-a]pyridin-7-yl)-6-cyclopropyl-N-(2,2-difluoro-3-(4-fluorophenyl)-3-hydroxypropyl)-2-fluorobenzamide [Example 304]”?
**A.** IC50 ([1]; HT29-L23 cells, read-out: pMLKL IC50): 2.8 nM; IC50 [2]: > 15000 nM; IC50 [3]: 4.8 nM
